Test results reported in patent US7390830B1, “Remedies or prophylactics for diseases in association with chemokines” (Teijin Limited, priority 1999, dated 2008).

Legend:
[1] = molecular target: T1, human MIP-1 α binding to THP-1 cells (Homo sapiens, UniProt P32246); assay: Inhibitory activity against binding of MIP-1 α to THP-1 cells; settings: concentration of 2 μM
T1 construct: endogenous in cells; host or cells: THP-1 (whole cells)
T1 sequence (P32246 1-355): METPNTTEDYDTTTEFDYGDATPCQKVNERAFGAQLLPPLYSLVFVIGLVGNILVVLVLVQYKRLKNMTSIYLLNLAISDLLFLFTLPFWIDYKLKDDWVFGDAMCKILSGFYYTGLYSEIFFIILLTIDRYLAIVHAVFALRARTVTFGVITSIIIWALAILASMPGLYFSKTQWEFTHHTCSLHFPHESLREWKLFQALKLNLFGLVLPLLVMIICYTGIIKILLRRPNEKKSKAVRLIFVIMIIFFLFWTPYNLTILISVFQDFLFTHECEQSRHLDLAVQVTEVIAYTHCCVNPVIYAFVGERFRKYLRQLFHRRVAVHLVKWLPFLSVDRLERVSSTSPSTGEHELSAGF
Description: THP-1 cells which are human monocytic leukemia cell line were suspended in an assay buffer [prepared by adding 0.1% of BSA and 25 mM of HEPES to RPMI-1640 (Gibco-BRL Co.) and adjusting the pH to 7.4] so as to provide 1×10^7 cells/mL to thereby afford a cell suspension. A solution obtained by diluting the test compound with the assay buffer was used as a test compound solution. A solution prepared by diluting an iodine-labeled human MIP-1 α (DuPont NEN Co.) with the assay buffer so as to provided 250 nCi/mL was used as a labeled ligand solution. […]
(§1) After completing the reaction, the reaction solution was filtered through a filter, and the filter was washed with 200 μL of cold PBS twice (the reaction solution was filtered after adding 200 μL of the cold PBS). The filter was air-dried, and 25 μL of liquid scintillator was then added into each well to count the radioactivity retained by the cells on the filter using TopCount (Packard Instrument Co.).
(§2) The count when 100 ng of an unlabeled human MIP-1 α (Peprotech Co.) instead of the test compound was added was subtracted as nonspecific adsorption, and the count when the test compound was not added was taken as 100%. Thereby, the inhibitory activity of the test compound against binding of the human MIP-1 α to THP-1 cells was calculated. […]

[2] = tested on: glomerulonephritis induced by anti-glomerular basement membrane serum; assay: Masugi's nephritis model in WKY rats; format: in vivo; settings: for inhibition of the concentration of urinary proteins / decrease of creatinine concentration in blood: vs control; for decrease of creatinine concentration in blood: 15th day after antiserum
Description: Rabbits were immunized with a trypsin fraction of rat kidney cortex to provide an anti-glomerular basement membrane serum which was intravenously injected to 4-weeks-old female WKY rats (Charles River) in a dose of 2.5 mL/kg body weight to induce glomerulonephritis. After injection of the antiserum, urine of each animal was collected for 24 hours with metabolic cages for rats (Clea Japan, Inc.) on the 1st, 4th, 7th, 10th and 14th days after the injection. The amount of the urine was measured by urine weight and the protein content in the urine was measured by using a kit for assaying proteins in urine and cerebrospinal fluid (Tonein TP-II, Otsuka Pharmaceutical Co., Ltd.) to determine the amount of proteins excreted in urine per day. Serum of the animals subjected to the experiments was collected on the 15th day after injecting the antiserum, and creatinine concentration in blood was measured with a creatinine assay kit (Autosera®), Daiichi Pure Chemicals Co., Ltd.) using a Hitach±7070 model autoanalyzer. The test compound was daily orally administered in a dose of 100 mg/kg body weight twice a day from the date of injecting the anti-glomerular basement membrane serum (about 10:00 a.m. and about 6:00 p.m. in Experiment 1 and about 10:00 a.m. and about 5:00 p.m. in Experiment 2). In the control group, only the solution (a 0.5% aqueous solution of sodium carboxymethylcellulose) was orally administered. The administration volume was 10 mL/kg body weight, and the number of animals (N) was 10.

[3] = tested on: collagen-induced arthritis; assay: Collagen-induced arthritis in rats; format: in vivo, Lewis female rats; settings: 300 mg/kg orally every day for 3 weeks, 5, 7, 9, 12 and 14 days after boosting
[4] = tested on: chronic relapsing experimental allergic encephalomyelitis; assay: Chronic relapsing experimental allergic encephalomyelitis in mice; format: in vivo, SJL/J×PL/J F1 mice; settings: for Onset Date, First Attack: SJL/J×PL/J F1 mice; for Onset Date, First Attack / Duration of Clinical Sign, First Attack / Onset Date, Second Attack (Relapse): to 41 days after injection of the emulsion; for Maximal Clinical Score, First Attack / Maximal Clinical Score, Second Attack (Relapse): score 0-5, to 41 days after injection of the emulsion
[5] = molecular target: T2, human MCP-1 binding to THP-1 cells (Homo sapiens, UniProt P41597); assay: Inhibitory activity against binding of [125I]-labeled human MCP-1 to THP-1 cells (method 1); settings: concentration of 10 μM
T2 construct: endogenous in cells; host or cells: THP-1 (whole cells)
T2 sequence (P41597 1-360 isoform P41597-2): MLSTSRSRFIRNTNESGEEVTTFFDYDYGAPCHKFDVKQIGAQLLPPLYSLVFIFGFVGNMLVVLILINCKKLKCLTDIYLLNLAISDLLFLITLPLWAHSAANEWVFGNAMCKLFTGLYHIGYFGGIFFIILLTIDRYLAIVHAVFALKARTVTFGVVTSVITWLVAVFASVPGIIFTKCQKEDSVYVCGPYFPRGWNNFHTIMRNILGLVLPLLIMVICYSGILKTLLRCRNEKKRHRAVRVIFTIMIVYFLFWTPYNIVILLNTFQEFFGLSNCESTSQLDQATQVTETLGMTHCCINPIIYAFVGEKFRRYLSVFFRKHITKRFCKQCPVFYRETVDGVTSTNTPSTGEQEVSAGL
Source text: Two kinds of DNA synthetic primers (5′-[…]-3′ (SEQ ID NO:1) and 5′-[…]-3′) (SEQ ID NO:2) having restriction enzyme recognition sites applied on the basis of the known human MCP-1 gene sequence (see, for example, Yoshimura, T. et al. FEBS Letters 1989, 244, 487-493) were used to amplify a cDNA derived from human vascular endothelial cells (purchased from Kurabow) according to a PCR method. The amplified fragment was cleaved with restriction enzymes (PstI and XbaI) and then ligated into a transfer vector pVL1393 (Invitrogen Co.). The resulting vector was co-transfected with an infectious baculovirus into Sf-9 insect cells. […]
as §1, with “air-dried” for “air-dried,”, “[…]” for “25 μL”
as §2, with “the above” for “an unlabeled”, “MCP-1 expressed with baculovirus (unlabeled)” for “MIP-1 α (Peprotech Co.)”, “MCP-1” for “MIP-1 α”

[6] = tested on: collagen-induced arthritis; assay: Collagen-induced arthritis in mice; format: in vivo, DBA/1 mice
[7] = 7th day after antiserum, 100 mg/kg orally twice a day
[8] = 10th day after antiserum, 100 mg/kg orally twice a day
[9] = 14th day after antiserum, 100 mg/kg orally twice a day
[10] = 300 mg/kg body weight oral, to 21 days after injection of the emulsion
[11] = 300 mg/kg body weight orally, vs control
[12] = 100 mg/kg body weight orally, vs control

Which inhibition at 2 µM [1] does the source give for `CCOc1cccc(C(=O)N[C@H](Cc2ccccc2)C(=O)NCC2CCN(Cc3ccc(Cl)cc3)CC2)c1` [Compd. No. 2091, 1-(4-chlorobenzyl)-4-[[N-(3-ethoxybenzoyl)-D-phenylalanyl]aminomethyl]piperidine] here?
Its inhibition at 2 µM is 50 to 80%.

Which “inhibition of the concentration of urinary proteins” value (“inhibition … of urinary proteins” for short) ([2]; 4th day after antiserum, 100 mg/kg orally twice a day) does the source give for `Nc1cc(F)c(F)cc1C(=O)NCC(=O)NCC1CCN(Cc2ccc(Cl)cc2)CC1` [compound 1245] here?
The value was 74%.

What about the “inhibition … of urinary proteins” value [2, 7] of the same compound?
Its value is 85%.

And the “inhibition … of urinary proteins” value [2, 8]?
Its value is 81%.

What about the “inhibition … of urinary proteins” value [2, 9] of the same compound?
Its value is 82%.

What about the “decrease of creatinine concentration in blood” value ([2]; 100 mg/kg orally twice a day) of the same compound?
Its value is 10%.

And the “Serum Creatinine Concentration on the 15th Day” value ([2]; WKY rats, Experiment 2, 100 mg/kg body weight orally twice a day, 15th day after injecting anti-glomerular basement membrane serum, mean ± spread)?
Its value is 0.48 ± 0.04 mg/dL.

And the “joint swelling (hindlimb footpad volume)” value [3]?
The value was “significantly inhibited joint swelling”.

What about the “Maximal Clinical Score” value ([4]; 300 mg/kg body weight oral, score 0-5, to 21 days after injection of the emulsion) of the same compound?
The value was 2.5 ± 1.5.

And the “Duration of Clinical Sign” value [4, 10]?
The value was 5.4 ± 2.4.

And the “Incidence (Number of Onset Animals/Number of Immunized Animals)” value [4, 10]?
The value was 17/19.

What about the “onset date” value [4, 10] of the same compound?
Its value is 13.2 ± 2.4.

And the onset date [4, 11]?
Its onset date is “delay in onset date (p<0.05)”.

What about the “symptoms (clinical scores)” value [4, 11] of the same compound?
The value was “tendency to inhibit symptoms (no significant difference)”.

Which inhibition at 10 µM [5] does the source give for `O=C(CNC(=O)c1cccc(C(F)(F)F)c1)NCC1CCN(Cc2cccc(OC(F)(F)F)c2)CC1` [Compd. No. 927, 1-[3-(trifluoromethoxy)benzyl]-4-[(N-(3-(trifluoromethyl)benzoyl)glycyl)aminomethyl]piperidine] here?
The inhibition at 10 µM was 20 to 50%.

Which results are given for `Nc1ccc(C(F)(F)F)cc1C(=O)NCC(=O)N[C@@H]1CCN(Cc2ccc(Cl)cc2)C1` [Compd. No. 1583]?
inhibition of the concentration of urinary proteins [2, 7]: 26%; inhibition of the concentration of urinary proteins [2, 8]: 51%; inhibition of the concentration of urinary proteins [2, 9]: 54%; decrease of creatinine concentration in blood ([2]; 100 mg/kg orally twice a day): 20%; Serum Creatinine Concentration ([2]; on the 15th Day, 100 mg/kg orally twice a day): 0.39 ± 0.03 mg/dL; chondrolysis of articular cartilages ([6]; knee joint, oral 12 weeks): significantly inhibited; osteolysis of subchondral bone ([6]; knee joint, oral 12 weeks): significantly inhibited; synovial hyperplasia ([6]; knee joint, oral 12 weeks): significantly inhibited; arthritis scores ([6]; orally once a day for 12 weeks, vs control group): significantly inhibited arthritis scores; Onset Date, First Attack ([4]; 30 mg/kg body weight oral): 12.3 ± 1.9; Maximal Clinical Score, First Attack ([4]; 30 mg/kg body weight oral): 3.5 ± 0.9; Maximal Clinical Score, Second Attack (Relapse) ([4]; 30 mg/kg body weight oral): 3.7 ± 0.6; Duration of Clinical Sign, First Attack ([4]; 30 mg/kg body weight oral): 9.8 ± 3.3; Onset Date, Second Attack (Relapse) ([4]; 30 mg/kg body weight oral): 26.3 ± 3.4; onset date, symptoms and onset period at the first attack ([4]; 30 mg/kg body weight orally, vs control): distinct effects on the items were not found; Onset Date, First Attack ([4]; 100 mg/kg body weight oral): 13.6 ± 2.0; Maximal Clinical Score, First Attack ([4]; 100 mg/kg body weight oral): 2.4 ± 1.3; Maximal Clinical Score, Second Attack (Relapse) ([4]; 100 mg/kg body weight oral): 3.0 ± 0.9; Duration of Clinical Sign, First Attack ([4]; 100 mg/kg body weight oral): 5.7 ± 3.8; Onset Date, Second Attack (Relapse) ([4]; 100 mg/kg body weight oral): 28.5 ± 4.7; onset date at the first attack [4, 12]: tendency to delay the onset date (no significant difference); onset period at the first attack [4, 12]: shortening of onset period (p<0.05); symptoms (clinical scores) at the first attack [4, 12]: symptom inhibition (p<0.05)
